Series [1] addresses T1, HrBP1 (harpin-binding protein 1) (Nicotiana tabacum, UniProt Q5QJB2).
T1 construct: full-length ORF (831 bp, 276 aa) in pET28a NdeI/XhoI, E. coli BL21(DE3), HisTrap purified, tag removal not described; about 30 kDa on SDS-PAGE, oligomer about 180 kDa by SEC
Put plainly: isothermal titration calorimetry. On the technique in general: Isothermal titration calorimetry measures the heat released or taken up as one component is titrated into another.

The target in series [2] is T1, HrBP1 (harpin-binding protein 1). Put plainly: isothermal titration calorimetry. Particulars: pH 7.5, 25 °C, 20 mM Tris-HCl, 100 mM NaCl.
Series [3] deals with the molecule itself. Put plainly: SEC; Superdex 200 10/300 GL, 4°C, 20 mM Tris-HCl, 100 mM NaCl, pH 7.5; mass standards 17-440 kDa; run without and after adding the small molecule Q-R (larger oligomer with Q-R). Background: SEC sorts molecules by how far they enter the pores of the column.

Usually Kd stands for a measure of binding affinity in units of concentration. High values mean weaker binding, low ones tighter binding. As for `Cc1cccc2sc(N[C@@H](c3cccs3)P(=O)(Oc3ccccc3)Oc3ccccc3)nc12` [Q-R, (R)-diphenyl-1-(4-methylbenzothiazole-2-amino)-1-(thiphene-2-yl)-methylphosphonate], the Kd in series [1] was 1190 nM.

For `CCOP(=O)(OCC)C(Nc1nc2c(C)cccc2s1)c1ccccc1F` (stereo not drawn) [dufulin], the isothermal titration calorimetry entry in series [2] was “weak binding occurred between the dufulin and HrBP1 protein”.

B1: harpin-binding protein 1 (HrBP1) from Nicotiana tabacum (natural protein, UniProt Q5QJB2 1-276, looked up)
chain: MASLLQYSTLPLSNNHCSSSLPSLTCHLSKRSNRNTQKLLEKKKYHIKKSLICQSGIDELAFIELPGTKEAKAELIGSLKLKLLSAVSGLNRGLAASEEDLKKADAAAKELESCAGAVDLSADLDKLQGRWKLIYSSAFSGRTLGGSRPGPPTGRLLPITLGQVFQRIDVLSKDFDNIVELELGAPWPLPPAELTATLAHKFELIGSSTIKITFEKTTVKTTGILSQLPPFEVPRIPDQLRPPSNTGSGEFEVTYIDSDTRVTRGDRGELRVFVIS
notes: full-length gene of 831 bp, 276 amino acids, cloned between NdeI and XhoI of pET28a; tryptic peptides matched UniProt Q5QJB2; Removal of the tag is not described; also called HrBP1 recombinant protein; source: E. coli BL21(DE3), pET28a-HrBP1, purified (HisTrap column, desalting column, ultrafiltration)
In the case of B1, in series [3], the binding result is “binds”.

The values above are taken from article PMC8044911, “Research on the Interaction Mechanism Between α Mino-Phosphonate Derivative Q-R and Harpin-Binding Protein 1 in Tobacco (Nicotiana tabacum) Plants” (Frontiers in Microbiology, 2021).
